In US6673783B2, “Fusidic acid derivatives” (Leo Pharmaceutical Products Ltd. A/S, priority 2001, dated 2004):
Values after ≈ are worked out from the molar mass of the structure shown.

Key:
bacteria = details: reduction of C-24/C-25 and C-17/C-20 double bonds of fusidic acid; von Daehne et al. 1979; cited from earlier work
Str. sp. ATCC12449 = assay: MIC, agar diffusion method, Str. sp. ATCC12449; type: cell-based; details: for MIC: read-out: MIC value (concentration in μg/ml required for 90% inhibition)
Description: (§1) In vitro investigations have evidenced high potency of compounds of the invention against several bacteria including Staphylococci, Streptococci, Corynebacteriae, Mycobacteriae and Neisseriae. […] The potency of new fusidic acid analogues are estimated by comparing the inhibition of growth of different microorganisms produced by known concentrations of the analogue to be examined and a reference like fusidic acid. The microbiological assay set up is in agreement with the European Pharmacopoeia 3rd edition (1997). It is an agar diffusion method where the same volume of the tested solution is added to cavities in agar. The inhibition zones are function of the concentration of the fusidic acid analogue used. All assays are run with fusidic acid as reference substance. [drawing 7]

Str.mitis Leo id: EG5 = assay: MIC, agar diffusion method, Str.mitis Leo id: EG5; type: cell-based; details: for MIC: Streptococcus mitis, read-out: MIC value (concentration in μg/ml required for 90% inhibition)
Description: as §1

[1] = tested on: Str. pyrogenes Leo id: EC5; assay: MIC, agar diffusion method, Str. pyrogenes Leo id: EC5; type: cell-based; details: for MIC: read-out: MIC value (concentration in μg/ml required for 90% inhibition)
Description: as §1

S. aureus ATCC 29213 = assay: MIC, agar diffusion method, S. aureus ATCC 29213; type: cell-based; details: for MIC: Staphylococcus aureus, ATCC29213, read-out: MIC value (concentration in μg/ml required for 90% inhibition)
Description: as §1

S. aureus CJ234 (R) = assay: MIC, agar diffusion method, S. aureus CJ234 (R) (MRSA and Rifampicin resistant); type: cell-based; details: for MIC: Staphylococcus aureus, read-out: MIC value (concentration in μg/ml required for 90% inhibition)
Description: as §1

S. epidermidis ATCC12228 = assay: MIC, agar diffusion method, S. epidermidis ATCC12228; type: cell-based; details: for MIC: Staphylococcus epidermidis, read-out: MIC value (concentration in μg/ml required for 90% inhibition)
Description: as §1

[2] = tested on: Str. salvarius LEO-ID EG7; assay: MIC, agar diffusion method, Str. salvarius LEO-ID EG7; type: cell-based; details: for MIC: read-out: MIC value (concentration in μg/ml required for 90% inhibition)
Description: as §1

Str. pyrogenes NCTC8304 = assay: MIC, agar diffusion method, Str. pyrogenes NCTC8304; type: cell-based; details: for MIC: read-out: MIC value (concentration in μg/ml required for 90% inhibition)
Description: as §1

Str. sp. Leo id: EF6 = assay: MIC, agar diffusion method, Str. sp. Leo id: EF6; type: cell-based; details: for MIC: read-out: MIC value (concentration in μg/ml required for 90% inhibition)
Description: as §1

[3] = tested on: Str. faecium Leo-id: E119(P); assay: MIC, agar diffusion method, Str. faecium Leo-id: E119(P) (penicillin resistant); type: cell-based; details: for MIC: Enterococcus faecium, read-out: MIC value (concentration in μg/ml required for 90% inhibition)
Description: as §1

S. aureus CJ232 = assay: MIC, agar diffusion method, S. aureus CJ232 (MRSA); type: cell-based; details: for MIC: Staphylococcus aureus, read-out: MIC value (concentration in μg/ml required for 90% inhibition)
Description: as §1

S. aureus ATC6538P = assay: MIC, agar diffusion method, S. aureus ATC6538P; type: cell-based; details: for MIC: Staphylococcus aureus, read-out: MIC value (concentration in μg/ml required for 90% inhibition)
Description: as §1

[4] = tested on: several bacteria including Staphylococci, Streptococci, Corynebacteriae, Mycobacteriae and Neisseriae; assay: In vitro antibacterial activity, agar diffusion with fusidic acid as reference; type: cell-based; details: biological tests, see Table 1
Description: as §1

Molecule | MIC value (concentration in μg/ml required for 90% inhibition) (Str. sp. ATCC12449) [µg/mL] | MIC value (concentration in μg/ml required for 90% inhibition) (Str.mitis Leo id: EG5) [µg/mL] | MIC value (concentration in μg/ml required for 90% inhibition) [1] [µg/mL] | MIC value (concentration in μg/ml required for 90% inhibition) (S. aureus ATCC 29213) [µg/mL] | MIC value (concentration in μg/ml required for 90% inhibition) (S. epidermidis ATCC12228) [µg/mL] | MIC value (concentration in μg/ml required for 90% inhibition) [2] [µg/mL] | MIC value (concentration in μg/ml required for 90% inhibition) (Str. pyrogenes NCTC8304) [µg/mL] | MIC value (concentration in μg/ml required for 90% inhibition) (Str. sp. Leo id: EF6) [µg/mL] | MIC value (concentration in μg/ml required for 90% inhibition) [3] [µg/mL] | MIC value (concentration in μg/ml required for 90% inhibition) (S. aureus CJ232) [µg/mL] | MIC value (concentration in μg/ml required for 90% inhibition) (S. aureus ATC6538P) [µg/mL] | further results
tetrahydrofusidic acid | – | – | – | – | – | – | – | – | – | – | – | antibacterial activity (bacteria): almost complete loss of activity
CC(=O)O[C@H]1C[C@@]2(C)C(CC(O)[C@@H]3C2(C)CCC2C(C)C(O)CC[C@@]23C)/C1=C(\CCC=C(C)C)C(=O)O (stereo partly shown) [Fusidic acid (1), fusidic acid] | – | – | – | – | – | – | – | – | – | – | – | MIC (Str. sp. ATCC12449): 4 µg/mL (≈ 7.74 µM); MIC (Str.mitis Leo id: EG5): 4 µg/mL (≈ 7.74 µM); MIC [1]: 4 µg/mL (≈ 7.74 µM); MIC (S. aureus ATCC 29213): 0.125 µg/mL (≈ 0.242 µM); MIC (S. aureus CJ234 (R)): 0.004 µg/mL (≈ 0.00774 µM); MIC (S. epidermidis ATCC12228): 0.125 µg/mL (≈ 0.242 µM); MIC [2]: 4 µg/mL (≈ 7.74 µM); MIC (Str. pyrogenes NCTC8304): 4 µg/mL (≈ 7.74 µM); MIC (Str. sp. Leo id: EF6): 4 µg/mL (≈ 7.74 µM); MIC [3]: 0.125 µg/mL (≈ 0.242 µM); MIC (S. aureus CJ232): 0.125 µg/mL (≈ 0.242 µM); MIC (S. aureus ATC6538P): 0.125 µg/mL (≈ 0.242 µM)
CCOC1CC2(C)C(CC(O)C3C4(C)CCC(O)C(C)C4CCC32C)C12CC2(CCC=C(C)C)C(=O)O (stereo not drawn) [Compound 110, 16-Deacetoxy-16β-ethoxy-17S,20S-methanofusidic acid] | 64 | 64 | 64 | 0.125 | 0.125 | 64 | 4 | 64 | 0.25 | 1.0 | 0.125 | MIC value (concentration in μg/ml required for 90% inhibition) (S. aureus CJ234 (R)): 0.004 µg/mL
CC(=O)OC1CC2(C)C(CC(O)C3C4(C)CCC(=O)C(C)C4CCC32C)C12CC2(CCC=C(C)C)C(=O)O (stereo not drawn) [Compound 104, 3-Dehydro-17S,20S-methanofusidic acid] | 64 | 64 | 64 | 0.125 | 0.125 | 64 | 16 | 64 | 0.25 | 1.0 | 0.125 | –
CC(=O)O[C@H]1C[C@@]2(C)C(CC(O)[C@@H]3C2(C)CCC2C(C)C(O)CC[C@@]23C)C12CC2(CCC=C(C)C)C(=O)O (stereo partly drawn) [Compound 101, 17S,20S-Methanofusidic acid] | – | – | – | – | – | – | – | – | – | – | – | MIC (Str. sp. ATCC12449): 16 µg/mL (≈ 30.1 µM); MIC (Str.mitis Leo id: EG5): 4 µg/mL (≈ 7.54 µM); MIC [1]: 16 µg/mL (≈ 30.1 µM); MIC (S. aureus ATCC 29213): 0.125 µg/mL (≈ 0.236 µM); MIC (S. aureus CJ234 (R)): 0.004 µg/mL (≈ 0.00754 µM); antibacterial activity compared to that of fusidic acid (1) [4]: comparable antibacterial activity; MIC (S. epidermidis ATCC12228): 0.125 µg/mL (≈ 0.236 µM); MIC [2]: 4 µg/mL (≈ 7.54 µM); MIC (Str. pyrogenes NCTC8304): 4 µg/mL (≈ 7.54 µM); MIC (Str. sp. Leo id: EF6): 4 µg/mL (≈ 7.54 µM); MIC [3]: 0.125 µg/mL (≈ 0.236 µM); MIC (S. aureus CJ232): 0.125 µg/mL (≈ 0.236 µM); melting point: 243 to 245 °C; MIC (S. aureus ATC6538P): 0.125 µg/mL (≈ 0.236 µM)
CC(=O)OC1CC2(C)C(CC(O)C3C4(C)CCC(O)C(C)C4CCC32C)C12CC2(CCCC(C)C)C(=O)O (stereo not drawn) [Compound 102, 24,25-Dihydro-17S,20S-methanofusidic acid] | 64 | 64 | 64 | 0.25 | 0.125 | 16 | 16 | 64 | 1 | 0.25 | 0.125 | MIC value (concentration in μg/ml required for 90% inhibition) (S. aureus CJ234 (R)): 0.25 µg/mL
CC(C)=CCCC1(C(=O)O)CC12C(OC(=O)C(C)C)CC1(C)C2CC(O)C2C3(C)CCC(O)C(C)C3CCC21C (stereo not drawn) [Compound 107, 16-Deacetoxy-16β-(isopropionyloxy)-17S,20S-methanofusidic acid] | 64 | 16 | 64 | 1.0 | 0.25 | 64 | 64 | 16 | 4 | 1.0 | 0.25 | –
